Like-named read-outs stand apart in the source and are kept apart here.
Assays:
[1] = molecular target: T1, Fn14-TWEAK binding (Homo sapiens, UniProt Q9NP84); test: Double sandwich ELISA small molecule screening of TWEAK binding to captured Fn14-Fc
T1 construct: the human Fc fragment-tagged Fn14 extracellular domain (R&D Systems) was captured; purchased R&D Systems (Fn14-Fc); Peprotech (recombinant TWEAK)
T1 sequence (Q9NP84 28-80 limits assumed): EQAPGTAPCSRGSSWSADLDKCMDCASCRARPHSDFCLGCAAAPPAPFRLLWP
Experimental: Double Sandwich ELISA. sTWEAK and sTWEAK variant proteins were synthesized as described above. The expression level of each IVTT synthesized sTWEAK protein was analyzed by western blot analysis and used in approximately equal amounts in the ELISA. To assay the binding of wild type sTWEAK and sTWEAK variants to Fn14, the human Fc fragment-tagged Fn14 extracellular domain (R&D Systems) was captured in an Immuno 96-microwell white plate by adding 100 μL of 0.025 μg/mL Fn14-Fc to wells coated with goat anti-human Fcγ fragment specific monoclonal antibody. After capture, the wells were washed 3× with Dulbecco's Phosphate Buffered Saline (DPBS) containing 0.05% Tween-20. Unbound sites were blocked by addition of 100 μL of blocking solution containing 0.05% Tween-20, 1% BSA, and 3% normal goat serum (NGS) in DPBS for 1 hr at room temperature. 0.01 μL of sTWEAK or sTWEAK variant made with the human IVTT kit or 2 μL of sTWEAK or sTWEAK variant made with the rabbit IVTT kit was diluted in 100 μL of sample diluent (DPBS+1% BSA+0.005% Tween-20) and then added to the wells for 2 hr followed by addition of 100 μL of 50 ng/mL biotinylated TWEAK detection antibody (R&D Systems) in sample diluent. Following incubation for additional 2 hr at room temperature, wells were washed 3× with DPBS containing 0.05% Tween-20 and bound biotinylated TWEAK antibody was detected by incubation with an HRP-conjugated streptavidin. The total luminescent signal was obtained using Femto ELISA kit (Pierce Biochemical) and compared to the standard curve signal obtained from the binding of 0-4000 pg/mL recombinant TWEAK (Peprotech inc) to Fn14-Fc. Using 5-parameter logistic curve fitting for standard curve analysis (Sigmaplot 11.0, SyStat Software Inc.), binding of sTWEAK or TWEAK variant to Fn14-Fc was determined. The data represents that observed for at least four replicate assays.
The small molecule screening was performed using the ELISA assay described above with minor modifications. Briefly, after capturing Fn14-Fc in the microwell plate, 80 μl of drug solution in sample diluent was added to desired wells and incubated for 2 hrs at room temperature. Subsequently, 20 μL of 2500 pg/mL (5×) TWEAK was added to each well to achieve final TWEAK concentration of 500 pg/mL and incubated for additional 2 hr at room temperature. Bound TWEAK was detected as described in the protocol above. All small molecule inhibitors were screened at 25 μM final concentration (final DMSO concentration of 0.125%) in duplicate. Cyclohexamide, a non-specific small molecule, at 25 μM concentration was used as negative control. The anti-Fn14 antibody ITEM-4, added at 2.5 μg/mL, was used as a positive control for complete blockade of TWEAK binding. Reduction in TWEAK binding due to compound addition or controls was calculated by using standard curve (Separate standard curve was obtained for every screening plate).

[2] = tested on: TWEAK-Fn14 signaling pathway; test: TWEAK induced Fn14-NF-κB Luc assay, optimized 384-well HTS format; format: cell-based, human; conditions: 1000 cells/well, 40 ng/mL TWEAK 8 hr, 1 hr pre-incubation
Excerpt: Human embryonic kidney cells (HEK293) express low levels of the Fn14 receptor. We developed a cell-based assay for the Fn14-TWEAK pathway signaling events using HEK293 cells that stably co-expresses high levels of full length Fn14 receptor and a firefly luciferase reporter driven by NF-KB-response elements (Fn14-NF-KB-Luc).
We optimized HEK293 Fn14-NF-KB Luc cell line for HTS by testing TWEAK-stimulated Luc-reporting as a function of growth medium, TWEAK concentration, induction time, assay duration, cell density, and DMSO concentration. For example, we seeded HEK293 Fn14-NF-KB-Luc and control cells (HEK293 NFKB-Luc) into a 96-well plate at a density of 10,000 cells/well, in DMEM or Opti-MEM® (Reduced serum media, protein concentration 15 μg/mL) and incubated at 37 C for 24 or 48 h. We then induced them with various concentrations of TWEAK in buffer or buffer alone (PBS+1 mg/mL BSA) for 5 hr and then measured firefly luciferase levels by chemiluminescence (Bright-Glo™ Promega). […] These initial conditions formed the basis for transfer of the assay into a 384-well format and further optimization with respect to cell seeding density, induction time, and TWEAK concentration.
We achieved the same conclusion from both 96-well and 384-well format that signal-to-background and fold-inductions are increased with increasing TWEAK concentration, peaking between 40-80 ng/mL and decreased at 100 ng/mL (FIGS. 20A and 20B). […] These conditions were further refined with respect to cell density (500-2500 cells per well), induction time (4-8 hr), and two TWEAK concentrations over a series of experiments in 384-well formats.
In the majority of seeding density conditions and two different TWEAK concentrations, the assay performance improved with increasing TWEAK induction time. At 8 hours of TWEAK stimulation, the fold induction (S/B) and Z′ factor was approximately 8-fold and 0.8, respectively, and the average % CV was 6.8%. […]

[3] = Table 3, first round of screening, 25 μM, average of duplicate, read-out: % Reduction in TWEAK Binding, Average
[4] = Table 3, first round of screening, 25 μM, replicate 1, read-out: % Reduction in TWEAK Binding, Data 1
[5] = Table 3, first round of screening, 25 μM, replicate 2, read-out: % Reduction in TWEAK Binding, Data 2
[6] = Table 5, 25 μM, average of duplicate, read-out: % Reduction in TWEAK Binding, Average
[7] = Table 5, 25 μM, replicate 1, read-out: % Reduction in TWEAK Binding, Data 1
[8] = Table 5, 25 μM, replicate 2, read-out: % Reduction in TWEAK Binding, Data 2
[9] = Table 4, second screening iteration, 25 μM, average of duplicate, read-out: % Reduction in TWEAK Binding, Average
[10] = Table 4, second screening iteration, 25 μM, replicate 1, read-out: % Reduction in TWEAK Binding, Data 1
[11] = Table 4, second screening iteration, 25 μM, replicate 2, read-out: % Reduction in TWEAK Binding, Data 2

Cc1cc(C2CCCN2C(=O)c2cc(-c3ccc4c(c3)OCO4)on2)on1 (stereo not drawn) [Compound J004-1091]
inhibition at 25 µM [1, 3]: 15% | inhibition at 25 µM [1, 4]: 23.1% | inhibition at 25 µM [1, 5]: 6.98% | inhibition at 25 µM [1, 6]: 15% | inhibition at 25 µM [1, 7]: 23.1% | inhibition at 25 µM [1, 8]: 6.98% | inhibition at 25 µM ([1]; first round of screening, 25 μM, read-out: average inhibition in TWEAK-Fn14 binding): > 15%

COc1cccc(NC(=O)CSc2nnc(-c3ccc(F)cc3)c(-c3ccc(F)cc3)n2)c1 [Compound K216-0906]
inhibition at 25 µM [1, 9]: 16.6% | inhibition at 25 µM [1, 10]: 17.2% | inhibition at 25 µM [1, 11]: 16% | inhibition at 25 µM [1, 6]: 16.6% | inhibition at 25 µM [1, 7]: 17.2% | inhibition at 25 µM [1, 8]: 16%

COc1cccc(NC(=O)CSc2nnc(-c3ccc(Cl)cc3)c(-c3ccc(Cl)cc3)n2)c1 [Compound K216-0957]
inhibition at 25 µM [1, 9]: 24% | inhibition at 25 µM [1, 10]: 23.8% | inhibition at 25 µM [1, 11]: 24.3% | inhibition at 25 µM [1, 6]: 24% | inhibition at 25 µM [1, 7]: 23.8% | inhibition at 25 µM [1, 8]: 24.3%

O=C(CSc1nnc(-c2ccccc2)c(-c2ccccc2)n1)Nc1cccc(Cl)c1 [Compound K784-2268]
inhibition at 25 µM [1, 9]: 17% | inhibition at 25 µM [1, 10]: 24% | inhibition at 25 µM [1, 11]: 10.1% | inhibition at 25 µM [1, 6]: 17% | inhibition at 25 µM [1, 7]: 24% | inhibition at 25 µM [1, 8]: 10.1%

O=C(CSc1nnc(-c2ccccc2)c(-c2ccccc2)n1)Nc1ccccc1Cl [Compound K784-2269]
% Reduction in TWEAK Binding, Average ([1]; Table 4, second screening iteration, 25 μM, average of duplicate): 9.52% | % Reduction in TWEAK Binding, Data 1 ([1]; Table 4, second screening iteration, 25 μM, replicate 1): 10.8055% | % Reduction in TWEAK Binding, Data 2 ([1]; Table 4, second screening iteration, 25 μM, replicate 2): 8.234%

COc1cccc(NC(=O)CSc2nnc(-c3ccccc3)c(-c3ccccc3)n2)c1 [Compound K784-2273]
inhibition at 25 µM [1, 9]: 10.5% | inhibition at 25 µM [1, 10]: 10.5% | inhibition at 25 µM [1, 6]: 10.5% | inhibition at 25 µM [1, 7]: 10.5%

O=C(c1cn(-c2cccc(Cl)c2)nn1)N1CCCC1 [Compound L524-0322]
inhibition at 25 µM [1, 9]: 11.6% | inhibition at 25 µM [1, 10]: 17% | inhibition at 25 µM [1, 11]: 6.27% | inhibition at 25 µM [1, 6]: 11.6% | inhibition at 25 µM [1, 7]: 17% | inhibition at 25 µM [1, 8]: 6.27%

O=C(NC1CC1)c1cn(-c2cccc(Cl)c2)nn1 [Compound L524-0361]
inhibition at 25 µM [1, 9]: 15.7% | inhibition at 25 µM [1, 10]: 14.7% | inhibition at 25 µM [1, 11]: 16.7% | inhibition at 25 µM [1, 6]: 15.7% | inhibition at 25 µM [1, 7]: 14.7% | inhibition at 25 µM [1, 8]: 16.7%

NC(=O)C1CCCN(c2nc3c(-c4ccccc4)csc3c(=O)[nH]2)C1 (stereo not drawn) [Compound Z250-1266]
inhibition at 25 µM [1, 3]: 11.8% | inhibition at 25 µM [1, 4]: 16.2% | inhibition at 25 µM [1, 5]: 7.41% | inhibition at 25 µM [1, 6]: 11.8% | inhibition at 25 µM [1, 7]: 16.2% | inhibition at 25 µM [1, 8]: 7.41%

Cc1ccc(-c2csc3c(=O)[nH]c(N4CCCC(C(N)=O)C4)nc23)cc1 (stereo not drawn) [Compound Z250-1348]
inhibition at 25 µM [1, 3]: 13.3% | inhibition at 25 µM [1, 4]: 16.6% | inhibition at 25 µM [1, 5]: 9.99% | inhibition at 25 µM [1, 6]: 13.3% | inhibition at 25 µM [1, 7]: 16.6% | inhibition at 25 µM [1, 8]: 9.99%

C[C@@H]1C[C@H]2[C@@H]3CCC4=CC(=O)C=C[C@]4(C)[C@@]3(F)[C@@H](O)C[C@]2(C)[C@@]1(O)C(=O)CO [Dexamethasone, dexamethasone]
effect on TWEAK induced Fn14-NF-κB Luc signal [2]: no effect

— patent publication US9238034B2, “FN14 antagonists and therapeutic uses thereof” (THE TRANSLATIONAL GENOMICS RESEARCH INSTITUTE, priority 2013, dated 2016)
